Data reported in PubChem BioAssay (NCI).
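Results reflect a 48-hour exposure of cells in 96-well plates to compound at five concentrations. At the GI50, growth is halved. TGI marks complete inhibition of growth.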

Assays:
Test in all cases: DTP human tumour cell line panel, 48 h
M14 melanoma = test system: M14 melanoma
SF-295 CNS = test system: SF-295 CNS
MCF7 breast = test system: MCF7 breast
SF-539 CNS = test system: SF-539 CNS
T-47D breast = test system: T-47D breast
A549 NSCLC = test system: A549 NSCLC
NCI-H460 lung = test system: NCI-H460 lung
A498 renal = test system: A498 renal
SNB-75 CNS = test system: SNB-75 CNS
BT-549 breast = test system: BT-549 breast
KM12 colon = test system: KM12 colon
OVCAR-8 ovarian = test system: OVCAR-8 ovarian
HOP-62 NSCLC = test system: HOP-62 NSCLC
EKVX NSCLC = test system: EKVX NSCLC
NCI-H23 lung = test system: NCI-H23 lung
OVCAR-4 ovarian = test system: OVCAR-4 ovarian
PC-3 prostate = test system: PC-3 prostate
UO-31 renal = test system: UO-31 renal
SK-OV-3 ovarian = test system: SK-OV-3 ovarian
LOX IMVI melanoma = test system: LOX IMVI melanoma
CCRF-CEM leukemia = test system: CCRF-CEM leukemia
SK-MEL-2 melanoma = test system: SK-MEL-2 melanoma
HT29 colon = test system: HT29 colon
MDA-MB-231 breast = test system: MDA-MB-231 breast
HCT-116 colon = test system: HCT-116 colon
NCI/ADR-RES ovarian = test system: NCI/ADR-RES ovarian
HL-60(TB) leukemia = test system: HL-60(TB) leukemia
UACC-257 melanoma = test system: UACC-257 melanoma
RXF 393 renal = test system: RXF 393 renal
MOLT-4 leukemia = test system: MOLT-4 leukemia
SN12C renal = test system: SN12C renal
SF-268 CNS = test system: SF-268 CNS
UACC-62 melanoma = test system: UACC-62 melanoma
SNB-19 CNS = test system: SNB-19 CNS
ACHN renal = test system: ACHN renal
RPMI-8226 leukemia = test system: RPMI-8226 leukemia
K-562 leukemia = test system: K-562 leukemia
TK-10 renal = test system: TK-10 renal
OVCAR-3 ovarian = test system: OVCAR-3 ovarian
SW-620 colon = test system: SW-620 colon
MDA-MB-435 = test system: MDA-MB-435
IGROV1 ovarian = test system: IGROV1 ovarian
HOP-92 NSCLC = test system: HOP-92 NSCLC
COLO 205 colon = test system: COLO 205 colon
DU-145 prostate = test system: DU-145 prostate
SK-MEL-28 melanoma = test system: SK-MEL-28 melanoma
CAKI-1 renal = test system: CAKI-1 renal
MALME-3M melanoma = test system: MALME-3M melanoma
HCT-15 colon = test system: HCT-15 colon
OVCAR-5 ovarian = test system: OVCAR-5 ovarian
NCI-H522 lung = test system: NCI-H522 lung
U251 CNS = test system: U251 CNS
HS 578T breast = test system: HS 578T breast
NCI-H226 lung = test system: NCI-H226 lung
786-0 renal = test system: 786-0 renal

`O=C1CCC(N2C(=O)c3ccccc3C2=O)C(=O)N1CO` (stereo not given) was tested, and the GI50 (M14 melanoma) was 54.7 µM, the TGI (M14 melanoma) was > 100 µM and the GI50 (SF-295 CNS) was > 100 µM. For the same compound, the TGI (SF-295 CNS) was > 100 µM, the GI50 (MCF7 breast) was 26.6 µM and the TGI (MCF7 breast) was > 100 µM. For the same compound, the GI50 (SF-539 CNS) was 30.8 µM, the TGI (SF-539 CNS) was 93.6 µM and the GI50 (T-47D breast) was 78 µM. For the same compound, the TGI (T-47D breast) was > 100 µM, the GI50 (A549 NSCLC) was > 100 µM and the TGI (A549 NSCLC) was > 100 µM. For the same compound, the GI50 (NCI-H460 lung) was > 100 µM, the TGI (NCI-H460 lung) was > 100 µM and the GI50 (A498 renal) was > 100 µM. The TGI (A498 renal) was > 100 µM, the GI50 (SNB-75 CNS) was > 100 µM and the TGI (SNB-75 CNS) was > 100 µM. The GI50 (BT-549 breast) was 52.6 µM, the TGI (BT-549 breast) was > 100 µM and the GI50 (KM12 colon) was > 100 µM. For the same compound, the TGI (KM12 colon) was > 100 µM, the GI50 (OVCAR-8 ovarian) was > 100 µM and the TGI (OVCAR-8 ovarian) was > 100 µM. For the same compound, the GI50 (HOP-62 NSCLC) was > 100 µM, the TGI (HOP-62 NSCLC) was > 100 µM and the GI50 (EKVX NSCLC) was > 100 µM. The TGI (EKVX NSCLC) was > 100 µM, the GI50 (NCI-H23 lung) was 39.6 µM and the TGI (NCI-H23 lung) was 94.6 µM. For the same compound, the GI50 (OVCAR-4 ovarian) was > 100 µM, the TGI (OVCAR-4 ovarian) was > 100 µM and the GI50 (PC-3 prostate) was 47.2 µM. For the same compound, the TGI (PC-3 prostate) was > 100 µM, the GI50 (UO-31 renal) was > 100 µM and the TGI (UO-31 renal) was > 100 µM. For the same compound, the GI50 (SK-OV-3 ovarian) was > 100 µM, the TGI (SK-OV-3 ovarian) was > 100 µM and the GI50 (LOX IMVI melanoma) was 23.6 µM. The TGI (LOX IMVI melanoma) was 58 µM, the GI50 (CCRF-CEM leukemia) was 30.5 µM and the TGI (CCRF-CEM leukemia) was > 100 µM. The GI50 (SK-MEL-2 melanoma) was > 100 µM, the TGI (SK-MEL-2 melanoma) was > 100 µM and the GI50 (HT29 colon) was 42.1 µM. For the same compound, the TGI (HT29 colon) was > 100 µM, the GI50 (MDA-MB-231 breast) was > 100 µM and the TGI (MDA-MB-231 breast) was > 100 µM. The GI50 (HCT-116 colon) was 21.2 µM, the TGI (HCT-116 colon) was 45.4 µM and the GI50 (NCI/ADR-RES ovarian) was > 100 µM. The TGI (NCI/ADR-RES ovarian) was > 100 µM, the GI50 (HL-60(TB) leukemia) was 32.2 µM and the TGI (HL-60(TB) leukemia) was 89.5 µM. For the same compound, the GI50 (UACC-257 melanoma) was 78.6 µM, the TGI (UACC-257 melanoma) was > 100 µM and the GI50 (RXF 393 renal) was 43 µM. The TGI (RXF 393 renal) was > 100 µM, the GI50 (MOLT-4 leukemia) was 36.2 µM and the TGI (MOLT-4 leukemia) was > 100 µM. The GI50 (SN12C renal) was 73.7 µM, the TGI (SN12C renal) was > 100 µM and the GI50 (SF-268 CNS) was > 100 µM. For the same compound, the TGI (SF-268 CNS) was > 100 µM, the GI50 (UACC-62 melanoma) was 32.6 µM and the TGI (UACC-62 melanoma) was > 100 µM. For the same compound, the GI50 (SNB-19 CNS) was > 100 µM, the TGI (SNB-19 CNS) was > 100 µM and the GI50 (ACHN renal) was 95.2 µM. The TGI (ACHN renal) was > 100 µM, the GI50 (RPMI-8226 leukemia) was 25.1 µM and the TGI (RPMI-8226 leukemia) was 78.7 µM. The GI50 (K-562 leukemia) was > 100 µM, the TGI (K-562 leukemia) was > 100 µM and the GI50 (TK-10 renal) was > 100 µM. For the same compound, the TGI (TK-10 renal) was > 100 µM, the GI50 (OVCAR-3 ovarian) was 67.4 µM and the TGI (OVCAR-3 ovarian) was > 100 µM. For the same compound, the GI50 (SW-620 colon) was 32.4 µM, the TGI (SW-620 colon) was > 100 µM and the GI50 (MDA-MB-435) was > 100 µM. For the same compound, the TGI (MDA-MB-435) was > 100 µM, the GI50 (IGROV1 ovarian) was 52.5 µM and the TGI (IGROV1 ovarian) was > 100 µM. The GI50 (HOP-92 NSCLC) was 25 µM, the TGI (HOP-92 NSCLC) was > 100 µM and the GI50 (COLO 205 colon) was > 100 µM. The TGI (COLO 205 colon) was > 100 µM, the GI50 (DU-145 prostate) was 25 µM and the TGI (DU-145 prostate) was 79.6 µM. For the same compound, the GI50 (SK-MEL-28 melanoma) was > 100 µM, the TGI (SK-MEL-28 melanoma) was > 100 µM and the GI50 (CAKI-1 renal) was 94.7 µM. The TGI (CAKI-1 renal) was > 100 µM, the GI50 (MALME-3M melanoma) was > 100 µM and the TGI (MALME-3M melanoma) was > 100 µM. For the same compound, the GI50 (HCT-15 colon) was 52.2 µM, the TGI (HCT-15 colon) was > 100 µM and the GI50 (OVCAR-5 ovarian) was > 100 µM. The TGI (OVCAR-5 ovarian) was > 100 µM, the GI50 (NCI-H522 lung) was > 100 µM and the TGI (NCI-H522 lung) was > 100 µM. The GI50 (U251 CNS) was 90.8 µM, the TGI (U251 CNS) was > 100 µM and the GI50 (HS 578T breast) was > 100 µM. The TGI (HS 578T breast) was > 100 µM, the GI50 (NCI-H226 lung) was > 100 µM and the TGI (NCI-H226 lung) was > 100 µM. For the same compound, the GI50 (786-0 renal) was > 100 µM and the TGI (786-0 renal) was > 100 µM.
